Results published in patent US20230058623A1, “NOVEL HETEROARYL-TRIAZOLE COMPOUNDS AS PESTICIDES” (Bayer Aktiengesellschaft, priority 2019, published 2023).

Columns and labels:
Format in all cases: in vivo
[1] = tested on: fall armyworm larvae (Spodoptera frugiperda); test: Spodoptera frugiperda spray test; details: 168 h, application rate 100 g/ha, after 7 days, maize leaf sections
Procedure, shortened: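 Read-out: % larval mortality at day 7, where 100% means all killed and 0% none killed. Compound diluted in water with 1000 ppm emulsifier, sprayed onto Zea mays leaf sections; dried sections then infested with S. frugiperda larvae.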

[2] = tested on: cattle ticks (Rhipicephalus microplus) strain Parkhurst, SP-resistant; test: Rhipicephalus (Boophilus) microplus dip test; details: 168 h, application rate 100 ppm, egg deposition after 7 days, read-out: activity (efficacy: infertile eggs)
Protocol: Rhipicephalus (Boophilus) microplus—Dip Test
Test animal: cattle ticks (Rhipicephalus microplus) strain Parkhurst, SP-resistant
Solvent: dimethyl sulfoxide
To produce a suitable preparation of active compound, 10 mg of active compound are dissolved in 0.5 mL solvent, and the concentrate is diluted with water to the desired concentration.
This compound solution is pipetted into tubes. 8-10 engorged, adult, female cattle ticks (Rhipicephalus microplus) are placed in perforated tubes. These tubes are immersed in the aqueous compound solution until the ticks are completely moistened. After the liquid has drained off, the ticks are transferred to a filter paper in a plastic tray and stored in a climate chamber.
After 7 days egg deposition of fertile eggs is monitored. Eggs where fertility is not visible are stored in a climate chamber till hatching after about 42 days. An efficacy of 100% means all eggs are infertile; 0% means all eggs are fertile.

[3] = tested on: adult engorged female ticks (Rhipicephalus microplus); test: Rhipicephalus (Boophilus) microplus injection test; details: 168 h, application rate 4 μg/tick, egg deposition after 7 days, read-out: activity (efficacy: infertile eggs)
Procedure, shortened: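 Abdominal injection, 1 μL compound/DMSO, n=5 engorged adult females; climate-chamber incubation. Readout d7: fertile egg laying; doubtful eggs held to hatch (~42 d). % efficacy = infertile eggs (100% all infertile).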

[4] = tested on: adult unfed cat fleas (Ctenocephalides felis); test: Ctenocephalides felis oral test; details: 48 h, read-out: activity (mortality)
Procedure, shortened: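 About 20 adult unfed cat fleas fed through parafilm on citrated cattle blood containing compound (from a DMSO concentrate). Blood held at 37° C, fleas at room temperature. Mortality in % scored after 2 days.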

[5] = tested on: adult brown dog ticks (Rhipicephalus sanguineus); test: Rhipicephalus sanguineus in-vitro contact test, adult brown dog ticks; details: application rate 5 μg/cm^2 (=500 g/ha), after 48 hours, read-out: activity (efficacy: ticks dead or moribund)
Procedure, shortened: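 Read-out: % efficacy as dead or moribund ticks, judged 48 h after exposure by failure to climb away from a 45-50° C heating plate within 5 min. Tubes were coated with acetone solution (900 ppm = 5 μg/cm^2 surface dose) and held 5-10 adults each at room temperature.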

[6] = tested on: green peach aphid (Myzus persicae); test: Myzus persicae spray test; details: foliar, 120 h, after 5 days, Chinese cabbage leaf disks; for mortality at 100 g/ha: application rate 100 g/ha, read-out: activity (mortality)
Procedure, shortened: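 Percent kill was recorded 5 days after spraying. Test solutions, prepared with solvent and diluted in 1000 ppm emulsifier water, were applied to Brassica pekinensis leaf disks carrying mixed-instar green peach aphids.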

[7] = tested on: green peach aphid (Myzus persicae); test: Myzus persicae oral test; details: 120 h, read-out: activity (mortality)
Procedure, shortened: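 Aphids of mixed population ingest the compound preparation by sucking through a parafilm sheet stretched over wells holding test solution plus IPL41 insect medium (33%+15% sugar). Kill rate in percent is determined five days later.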

[8] = tested on: adult cat fleas (Ctenocephalides felis); test: Ctenocephalides felis in-vitro contact test, adult cat flea; details: application rate 5 μg/cm^2 (=500 g/ha), after 48 hours, read-out: activity (efficacy: fleas dead or moribund)
Procedure, shortened: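 After 48 h of room-temperature exposure in tubes whose walls carried dried compound residue (5 μg/cm^2, from 900 ppm acetone solution), adult cat fleas (5-10 per tube) were heat-challenged at 45-50° C up to 5 min. Fleas unable to climb away were counted dead or moribund, expressed as % efficacy.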

[9] = tested on: Rhipicephalus (Boophilus) microplus larvae (strain Parkhurst, resistant against synthetic pyrethroids); test: Rhipicephalus (Boophilus) microplus in-vitro contact test, larval cattle tick; details: after 48 hours, read-out: activity (efficacy: larvae dead or moribund); for pest or weed control at 1 µg/cm2, 100 g/ha: application rate 1 μg/cm^2 (=100 g/ha); for pest or weed control at 5 µg/cm2, 500 g/ha: application rate 5 μg/cm^2 (=500 g/ha)
Procedure, shortened: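 Pyrethroid-resistant Parkhurst larvae, 20–50 per tube, were kept 48 h at 27 °C and 85% relative humidity in glass tubes whose inner walls carried a dried acetone film of compound (900 ppm giving 5 μg/cm^2). Dead or moribund larvae, judged by loss of negative geotactic behavior, set percent efficacy.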

[10] = tested on: larvae of the banded cucumber beetle (Diabrotica balteata); test: Diabrotica balteata spray test; details: 168 h, after 7 days, wheat seeds, read-out: activity (efficacy: seedlings grown); for pest or weed control at 32 µg/disc, 100 g/ha: application rate 100 g/ha (=32 μg/well)
Procedure, shortened: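 Efficacy (%) read 7 days after infesting treated seedlings with 10-20 banded cucumber beetle larvae, 100% meaning growth as in uninfected untreated control and 0% no growth. Test solutions in water containing 1000 ppm emulsifier were sprayed onto wheat seeds germinated for 1 day on agar.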

[11] = tested on: adult flies Musca domestica strain WHO-N; test: Musca domestica test (MUSCDO surface treatment & contact assay); details: surface concentration 20 mg/m^2, exposure 30 minutes, 24 hours after contact, read-out: efficacy (mortality)
Procedure, shortened: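 Compound dissolved at 2 mg/ml in acetone with 2000 ppm RME, applied to glazed tile and dried; adult flies exposed on the surface for 30 min. Percent mortality scored 24 h after contact.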

[12] = tested on: southern root-knot nematode (Meloidogyne incognita); test: Meloidogyne incognita test; details: application rate 20 ppm; after 14 days
Protocol: Meloidogyne incognita—Test
Solvent: 125.0 parts by weight of acetone
To produce a suitable preparation of active compound, 1 part by weight of active compound is mixed with the stated amount of solvent, and the concentrate is diluted with water to the desired concentration.
Vessels are filled with sand, a solution of the active ingredient, a suspension containing eggs and larvae of the southern root-knot nematode (Meloidogyne incognita) and salad seeds. The salad seeds germinate and the seedlings grow. Galls develop in the roots.
After 14 days the nematicidal activity is determined based on the percentage of gall formation. 100% means no galls were found and 0% means the number of galls found on the roots of the treated plants was equal to that in untreated control plants.

[13] = tested on: brown planthopper (Nilaparvata lugens); test: Nilaparvata lugens spray test; details: 96 h, application rate 500 g/ha, after 4 days, rice plants
Protocol: Nilaparvata lugens—Spray Test
To produce a suitable preparation of active compound, 1 part by weight of active compound is mixed with the stated amount of solvents and is diluted with water, containing an emulsifier concentration of 1000 ppm, to the desired concentration. Further test concentrations are prepared by dilution with emulsifier containing water.
Rice plants (Oryza sativa) are sprayed with a preparation of the active ingredient of the desired concentration and the plants are infested with the brown planthopper (Nilaparvata lugens).
After 4 days mortality in % is determined. 100% means all planthoppers have been killed and 0% means none of the planthoppers have been killed.

[14] = tested on: larvae of the southern green stink bug (Nezara viridula); test: Nezara viridula spray test; details: 96 h, after 4 days, barley plants; for mortality at 500 g/ha: application rate 500 g/ha, read-out: activity (mortality)
Procedure, shortened: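 Barley plants sprayed with the active compound in emulsifier-containing water, then infested with stink bug larvae. Mortality scored in % after 4 days, with 100% meaning all insects killed.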

[15] = tested on: adult mosquitoes Aedes aegypti strain MONHEIM; test: Aedes aegypti test (AEDSAE surface treatment & contact assay); details: 24 hours after contact, read-out: efficacy (mortality); for mortality at 20 mg/m2: surface concentration 20 mg/m^2, exposure 30 minutes
Procedure, shortened: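 Compound in acetone (2 mg/ml) with 2000 ppm RME dried onto glazed tile; adults exposed to the treated surface for 30 min. Percent mortality scored 24 h after contact.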

## Cc1nc([C@H](C)NC(=O)c2cc(C(F)(F)F)cc(C(F)(F)F)c2)n(-c2ccc(C(=O)N3C[C@@H](C)O[C@H](C)C3)cn2)n1 [Example I-47]
[1]
  mortality at 100 g/ha: 100%
[2]
  pest or weed control at 100 ppm: 100%
[3]
  pest or weed control at 0.004 mg: 100%
[4]
  mortality at 100 ppm: 90%
[5]
  pest or weed control at 5 µg/cm2, 500 g/ha: 100%
[6]
  mortality at 100 g/ha: 100%
[7]
  mortality at 4 ppm: 100%
[8]
  pest or weed control at 5 µg/cm2: 100%
[9]
  pest or weed control at 1 µg/cm2, 100 g/ha: 100%
  pest or weed control at 5 µg/cm2, 500 g/ha: 100%

## Cc1nc([C@H](C)NC(=O)c2cc(C(F)(F)F)cc(C(F)(F)F)c2)n(-c2ncc(C(=O)N3C[C@@H](C)O[C@@H](C)C3)s2)n1 [Example I-107]
[1]
  mortality at 100 g/ha: 100%
[2]
  pest or weed control at 100 ppm: 100%
[3]
  pest or weed control at 0.004 mg: 100%
[4]
  mortality at 100 ppm: 100%
[5]
  pest or weed control at 5 µg/cm2, 500 g/ha: 100%
[10]
  pest or weed control at 32 µg/disc, 100 g/ha: 100%
[7]
  mortality at 4 ppm: 100%
[11]
  mortality at 20 mg/m2: 80 to 100%
[9]
  pest or weed control at 1 µg/cm2, 100 g/ha: 100%
  pest or weed control at 5 µg/cm2, 500 g/ha: 100%

## Cc1nc([C@H](C)NC(=O)c2cc(Cl)cc(C(F)(F)F)c2)n(-c2cc(C(=O)N3CCCC3)ccn2)n1 [Example I-27]
[3]
  pest or weed control at 0.004 mg: 80%
[4]
  mortality at 100 ppm: 100%
[5]
  pest or weed control at 5 µg/cm2, 500 g/ha: 80%
[12]
  activity (nematicidal activity based on gall formation): 90%
[9]
  pest or weed control at 1 µg/cm2, 100 g/ha: 100%
  pest or weed control at 5 µg/cm2, 500 g/ha: 100%

## Cc1nc([C@H](C)NC(=O)c2cc(Cl)cc(C(F)(F)F)c2)n(-c2cc(C(=O)N3CCC3)ccn2)n1 [Example I-28]
[3]
  pest or weed control at 0.004 mg: 80%
[4]
  mortality at 100 ppm: 100%
[12]
  activity (nematicidal activity based on gall formation): 90%
[9]
  pest or weed control at 1 µg/cm2, 100 g/ha: 90%
  pest or weed control at 5 µg/cm2, 500 g/ha: 90%

## CC1CN(C(=O)c2ccc(-n3ncnc3[C@H](C)NC(=O)c3cc(C(F)(F)F)cc(S(C)(=O)=O)c3)nc2)CCO1 (stereo partly shown) [Example I-81]
[13]
  mortality at 500 g/ha: 100%
[12]
  activity (nematicidal activity based on gall formation): 100%
[7]
  mortality at 4 ppm: 100%
[14]; application rate 100 g/ha
  mortality at 100 g/ha: 100%
[14]
  mortality at 500 g/ha: 100%

## COC1CCN(C(=O)c2ccc(-n3ncnc3[C@H](C)NC(=O)c3cc(Cl)cc(C(F)(F)F)c3)nc2)CC1 [Example I-30]
[3]
  pest or weed control at 0.004 mg: 100%
[6]
  mortality at 100 g/ha: 90%
[12]
  activity (nematicidal activity based on gall formation): 90%
[7]
  mortality at 4 ppm: 100%
[8]
  pest or weed control at 5 µg/cm2: 80%
[9]
  pest or weed control at 1 µg/cm2, 100 g/ha: 100%
  pest or weed control at 5 µg/cm2, 500 g/ha: 100%

## C[C@H](NC(=O)c1cc(C(F)(F)F)cc(C(F)(F)F)c1)c1nc(C2CC2)nn1-c1ccc(C(=O)N2CCOCC2)cn1 [Example I-88]
[1]
  mortality at 100 g/ha: 100%
[5]
  pest or weed control at 5 µg/cm2, 500 g/ha: 100%
[15]
  mortality at 20 mg/m2: 80 to 100%
[10]
  pest or weed control at 32 µg/disc, 100 g/ha: 100%
[6]
  mortality at 100 g/ha: 90%
[12]
  activity (nematicidal activity based on gall formation): 100%
[11]
  mortality at 20 mg/m2: 80 to 100%
[8]
  pest or weed control at 5 µg/cm2: 100%
[9]
  pest or weed control at 1 µg/cm2, 100 g/ha: 100%
  pest or weed control at 5 µg/cm2, 500 g/ha: 100%
[14]
  mortality at 500 g/ha: 100%

## C[C@H](NC(=O)c1cc(Cl)cc(C(F)(F)F)c1)c1ncnn1-c1ccc(C(=O)N2CCOCC2)cn1 [Example I-1]
[1]
  mortality at 100 g/ha: 100%
[2]
  pest or weed control at 100 ppm: 80%
[3]
  pest or weed control at 0.004 mg: 100%
[4]
  mortality at 100 ppm: 100%
[15]; surface concentration 4 mg/m^2, exposure 30 minutes
  mortality at 4 mg/m2: 80 to 100%
[15]
  mortality at 20 mg/m2: 80 to 100%
[10]; application rate 500 g/ha (=160 μg/well)
  pest or weed control at 160 µg/disc, 500 g/ha: 100%
[13]
  mortality at 500 g/ha: 100%
[6]
  mortality at 100 g/ha: 100%
[6]; application rate 500 g/ha
  mortality at 500 g/ha: 100%
[7]
  mortality at 4 ppm: 100%
[8]
  pest or weed control at 5 µg/cm2: 100%
[14]
  mortality at 500 g/ha: 100%
